Measured values published in patent publication US10709692B2, “Isoxazolidine derived inhibitors of receptor interacting protein kinase 1 (RIPK1)” (Denali Therapeutics Inc., priority 2015, dated 2020).
“And” between values parts separate entries of the source, which are not always exact repeats. Equal values may be shown once.

Key:
[1] = target: T1, receptor interacting protein kinase 1 (GST-hRIPK1 (8-327)) (Homo sapiens, UniProt Q13546); experiment: ADP-Glo luminescence assay, RIPK1 autophosphorylation; assay type: biochemical; settings: 1.5 μg/mL GST-hRIPK1 (8-327), 50 μM ATP, 3 hours at room temperature
T1 construct: GST-hRIPK1 (8-327) enzyme was generated by Proteros GmbH by Baculovirus expression system
T1 sequence (Q13546 8-327): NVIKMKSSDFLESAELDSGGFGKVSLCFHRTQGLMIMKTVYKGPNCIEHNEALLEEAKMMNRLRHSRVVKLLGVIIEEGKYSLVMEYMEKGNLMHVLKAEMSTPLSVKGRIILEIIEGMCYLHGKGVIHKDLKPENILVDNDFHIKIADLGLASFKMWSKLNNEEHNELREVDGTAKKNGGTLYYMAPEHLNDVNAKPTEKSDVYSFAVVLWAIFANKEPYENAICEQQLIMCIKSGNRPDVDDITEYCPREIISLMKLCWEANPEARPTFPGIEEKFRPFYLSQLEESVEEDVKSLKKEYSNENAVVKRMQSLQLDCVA
Protocol: (§1) Compound potency at receptor interacting protein kinase 1 and selectivity at receptor interacting protein kinase 2 and receptor interacting protein kinase 3 was determined in autophosphorylation mode, using an ADP-Glo luminescence assay, which measures the conversion of ATP to ADP.
(§2) GST-hRIPK1 (8-327) enzyme was generated by Proteros GmbH by Baculovirus expression system. GST-hRIPK2 (1-299) and GST-hRIPK3 (1-518) enzymes were purchased from SignalChem. Test compounds were diluted in DMSO and 0.1 μL of solution was dispensed to each well of a 384-well white solid microplates. The assay buffer was 50 mM HEPES pH 7.5, 50 mM NaCl, 30 mM MgCl2. The buffer was supplemented with 0.02% CHAPS, 0.01% of Pluronic F127, 0.1 mg/mL BSA and 1 mM DTT. Only for receptor interacting protein kinase 1 5 mM MnCl2, was included in the assay buffer on the day of the experiment. The enzymatic reaction consisted of 1.5 μg/mL GST-hRIPK1 (8-327) and 50 μM ATP for receptor interacting protein kinase 1, 0.4 μg/mL GST-hRIPK2 (1-299) and 150 μM ATP, 0.4 μg/mL GST-hRIPK3 (1-518) and 15 μM ATP. 5 μL of enzyme and 5 μL of ATP were added to the plate at twice the final assay concentration and incubated at room temperature for 3 hours. Following this reaction, 10 μL of ADP-Glo reagent (Promega) was added to each well and incubated for 40 minutes at room temperature. This stops the kinase reaction and depletes any remaining ATP. 20 μL of ADP-Glo detection reagent was then added to each well and incubated at room temperature for at least 15 minutes. The detection reagent converts ADP to ATP and introduces luciferase and luciferin to detect ATP. The luminescence is then measured with the Envision (PerkinElmer) plate reader. Test compound inhibition was expressed as percent inhibition of internal assay controls. For concentration response curves, normalized data is fit and pIC50 determined using XL-fit (IDBS) for Excel. The pIC50 were averaged to determine a mean value, for a minimum of two independent experiments.
as §1, with “Certain compounds were tested in the following. Compound” for “Compound”, “assay (Berger S. B. et al. (2015) Cell Death Discovery, 1: 15009),” for “assay,”
GST-hRIPK1 (8-327) enzyme was generated by Proteros GmbH by Baculovirus expression system.
as §2, with “Test” for “GST-hRIPK1 (8-327) enzyme was generated by Proteros GmbH by Baculovirus expression system. GST-hRIPK2 (1-299) and GST-hRIPK3 (1-518) enzymes were purchased from SignalChem. Test”, “microplate.” for “microplates.”, “comprised” for “consisted of”, “1” for “1, 0.4 μg/mL GST-hRIPK2 (1-299) and 150 μM ATP, 0.4 μg/mL GST-hRIPK3 (1-518)”, “IC50” for “pIC50”, “experiments. […]” for “experiments.”

[2] = target: T1, receptor interacting protein kinase 1 (GST-hRIPK1 (8-327)); experiment: Fluorescent Polarization Binding (FP Binding) assay; settings: 10 nM GST-hRIPK1 (8-327), 5 nM fluorescent-labeled ligand, 30 min at RT
Procedure, shortened: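 Displacement of 5 nM fluorescent ligand from 10 nM GST-hRIPK1 (8-327), 30 min at room temperature in pH 7.5 HEPES buffer, 1% DMSO. Fluorescence polarization read (ex 531/em 595 nm); IC50 fitted from percent inhibition and averaged over at least two independent experiments.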

An IC50 [1] of under 1000 nM was found for `Cn1c(C#N)ccc1C(=O)N1OCCC1c1c(F)cccc1Cl` (racemic) [Compound 3, 5-[3-(2-chloro-6-fluorophenyl)-1,2-oxazolidine-2-carbonyl]-1-methyl-1H-pyrrole-2-carbonitrile] in this work.
An IC50 [1] of 1000 to 10000 nM was found for `CC(C)(C)NC(=O)N1OCC[C@H]1c1ccccc1` [Compound 5, (3S)—N-tert-Butyl-3-phenyl-1,2-oxazolidine-2-carboxamide] in this work.
An IC50 [1] of 1000 to 10000 nM was found for `CN(C)C(=O)N1OCC[C@H]1c1ccccc1` [Compound 6, (3S)—N,N-dimethyl-3-phenyl-1,2-oxazolidine-2-carboxamide] in this work.
An IC50 [1] of 1000 to 10000 nM was found for `O=C(N1CCCC1)N1OCC[C@H]1c1ccccc1` [Compound 7, (3S)-3-phenyl-2-(pyrrolidine-1-carbonyl)-1,2-oxazolidine] in this work.
An IC50 [1] of over 10000 nM was found for `O=C(CO)N1OCC[C@H]1c1ccccc1` [Compound 9, 2-hydroxy-1-[(3S)-3-phenyl-1,2-oxazolidin-2-yl]ethan-1-one] in this work.
An IC50 [1] of over 10000 nM was found for `O=C(N1OCC[C@H]1c1ccccc1)C1(O)CC1` [Compound 10, 1-[(3S)-3-Phenyl-1,2-oxazolidine-2-carbonyl]cyclopropan-1-ol] in this work.
An IC50 [1] of 1000 to 10000 nM was found for `O=C(C1COC1)N1OCC[C@H]1c1ccccc1` [Compound 11, (3S)-2-(Oxetane-3-carbonyl)-3-phenyl-1,2-oxazolidine] in this work.
An IC50 [1] of 1000 to 10000 nM was found for `COCC(=O)N1OCC[C@H]1c1ccccc1` [Compound 13, 2-Methoxy-1-[(3S)-3-phenyl-1,2-oxazolidin-2-yl]ethan-1-one] in this work.
In the case of `Cc1ncc([C@@H]2CCON2C(=O)C(C)(C)C(F)F)cc1F` [Compound 195, 3,3-difluoro-1-[(3S)-3-(5-fluoro-6-methylpyridin-3-yl)-1,2-oxazolidin-2-yl]-2*2-dimethylpropan-1-one], the IC50 [2] is reported as < 1000 nM and 10 nM.
With `Cc1ncc([C@@H]2CCON2C(=O)C(C)(C)CC#N)cc1F` [Compound 196, 4-[(3S)-3-(5-fluoro-6-methylpyridin-3-yl)-1,2-oxazolidin-2-yl]-3,3-dimethyl-4-oxobutanenitrile] the IC50 [2] was < 1000 nM and 9 nM.
For `Cn1cc([C@@H]2CCON2C(=O)C(C)(C)C(F)F)cn1` [Compound 198, (S)-3,3-difluoro-2,2-dimethyl-1-(3-(1-methyl-1H-pyrazol-4-yl)isoxazolidin-2-yl)propan-1-one], the IC50 [2] was < 1000 nM and 51 nM.
For `CC(C)(C(=O)N1OCC[C@H]1c1cncc(C#N)c1)C(F)F` [Compound 200, (S)-5-(2-(3,3-difluoro-2,2-dimethylpropanoyl)isoxazolidin-3-yl)nicotinonitrile], the IC50 [2] was < 1000 nM and 9 nM.
An IC50 [2] of under 1000 nM was found for `Cc1ccc([C@@H]2CCON2C(=O)C(C)(C)C(F)F)cn1` [Compound 202, 3,3-difluoro-2,2-dimethyl-1-[(3S)-3-(6-methylpyridin-3-yl)-1,2-oxazolidin-2-yl]propan-1-one] in this work.
An IC50 [2] of under 1000 nM was found for `CC(C)(C(=O)N1OCC[C@@H]1c1ccc(C#N)s1)C(F)F` [Compound 203, 5-[(3R)-2-(3,3-difluoro-2,2-dimethylpropanoyl)-1,2-oxazolidin-3-yl]thiophene-2-carbonitrile] in this work.
An IC50 [2] of under 1000 nM was found for `CC(C)(C(=O)N1OCC[C@H]1c1ccc(C#N)s1)C(F)F` [Compound 204, 5-[(3S)-2-(3,3-difluoro-2,2-dimethylpropanoyl)-1,2-oxazolidin-3-yl]thiophene-2-carbonitrile] in this work.
An IC50 [2] of under 1000 nM was found for `Cn1cc([C@@H]2CCON2C(=O)C(C)(C)C)cc1C#N` [Compound 205, 4-[(3S)-2-(2,2-dimethylpropanoyl)-1,2-oxazolidin-3-yl]-1-methyl-1 h-pyrrole-2-carbonitrile] in this work.
An IC50 [2] of under 1000 nM was found for `Cc1ncc([C@@H]2CCON2C(=O)C(C)(C)C)cc1C#N` [Compound 219] in this work.
An IC50 [2] of under 1000 nM was found for `Cc1ncc([C@@H]2CCON2C(=O)C(C)(C)C(F)F)cc1C#N` [Compound 220, 5-[(3S)-2-(3,3-difluoro-2,2-dimethylpropanoyl)-1,2-oxazolidin-3-yl]-2-methylpyridine-3-carbonitrile] in this work.
With `CC(C)(C(=O)N1OCC[C@H]1c1ccc(C(F)F)nc1)C(F)F` [Compound 221, 1-[(3S)-3-[6-(difluoromethyl)pyridin-3-yl]-1,2-oxazolidin-2-yl]-3,3-difluoro-2,2-dimethylpropan-1-one] the IC50 [2] was < 1000 nM and 70 nM.
An IC50 [2] of under 1000 nM was found for `CC(C)(C)C(=O)N1OCC[C@H]1c1cc(Br)cc(C#N)c1` [Compound 222, 3-bromo-5-[(3S)-2-(2,2-dimethylpropanoyl)-1,2-oxazolidin-3-yl]benzonitrile] in this work.
An IC50 [2] of under 1000 nM was found for `CC(C)(C)C(=O)N1OCC[C@H]1c1ccc([N+](=O)[O-])nc1` [Compound 223, 2,2-dimethyl-1-[(3S)-3-(6-nitropyridin-3-yl)-1,2-oxazolidin-2-yl]propan-1-one] in this work.
An IC50 [2] of 1000 to 10000 nM was found for `CC(C)S(=O)(=O)N1OCC[C@H]1c1cncc(C#N)c1` [Compound 225, 5-[(3S)-2-(propane-2-sulfonyl)-1,2-oxazolidin-3-yl]pyridine-3-carbonitrile] in this work.
An IC50 [2] of under 1000 nM was found for `CC(C)(C(=O)N1OCC[C@H]1c1cc(F)cc(C#N)c1)C(F)F` [Compound 226, 3-[(3S)-2-(3,3-difluoro-2,2-dimethylpropanoyl)-1,2-oxazolidin-3-yl]-5-fluorobenzonitrile] in this work.
An IC50 [2] of under 1000 nM was found for `CC(C)(C(=O)N1OCC[C@H]1c1ccc(C(F)F)c(C#N)c1)C(F)F` [Compound 227, 5-[(3S)-2-(3,3-difluoro-2,2-dimethylpropanoyl)-1,2-oxazolidin-3-yl]-2-(difluoromethyl)benzonitrile] in this work.
An IC50 [2] of under 1000 nM was found for `CC(C)(CC#N)C(=O)N1OCC[C@H]1c1ccc(C(F)F)c(C#N)c1` [Compound 228, 5-[(3S)-2-(3-cyano-2,2-dimethylpropanoyl)-1,2-oxazolidin-3-yl]-2-(difluoromethyl)benzonitrile] in this work.
An IC50 [2] of under 1000 nM was found for `N#Cc1ccc([C@@H]2CCON2C(=O)C2(C(F)F)CCC2)cc1` [Compound 229, 4-[(3S)-2-[1-(difluoromethyl)cyclo-butanecarbonyl]-1,2-oxazolidin-3-yl]benzonitrile] in this work.
An IC50 [2] of under 1000 nM was found for `N#Cc1ccc([C@@H]2CCON2C(=O)C23C4C5C6C4C2C6C53)cc1` (stereo partly drawn) [Compound 238, 4-[(3S)-2-(cubane-1-carbonyl)-1,2-oxazolidin-3-yl]benzonitrile] in this work.
An IC50 [2] of under 1000 nM was found for `CC(C)(C(=O)N1OCC[C@H]1c1cccc(C#N)c1)C(F)F` [Compound 239, 3-[(3S)-2-(3,3-difluoro-2,2-dimethylpropanoyl)-1,2-oxazolidin-3-yl]benzonitrile] in this work.
An IC50 [2] of 5 nM was found for `N#Cc1cncc([C@@H]2CCON2C(=O)C(C2CC2)(C2CC2)C2CC2)c1` [Compound 242, 5-[(3S)-2-(tricyclopropylacetyl)-1,2-oxazolidin-3-yl]pyridine-3-carbonitrile] in this work.
